Results reported in article PMC7832401, “Antimycobacterial, Cytotoxic, and Antioxidant Activities of Abietane Diterpenoids Isolated from Plectranthus madagascariensis” (Plants, 2021).
“And” between values parts separate entries of the source, which are not always exact repeats. Equal values may be shown once. Read-outs that look alike come from different tables or passages of the source.

Key:
[1] = ORAC (Oxygen Radical Absorbance Capacity) assay; details: for ORAC: μM Trolox equivalents per gram, mean ± SD
Method: The ORAC assay was conducted according to Prior et al.’s method, which is a modified version of the original ORAC assay developed by Cao and Prior [26]. In this assay, 2,2′-azobis(2-amidinopropane) dihydrochloride (AAPH) underwent thermal decomposition to generate peroxyl radicals, resulting in a reduction in fluorescence from fluorescein. The antioxidant potential of the isolated compounds was measured by their ability to prevent any loss in fluorescence from fluorescein by neutralizing peroxyl radicals and assessing the sample’s fluorescence area under the curve (AUC). The fluoroskan spectrum plate reader was programmed to record fluorescein’s fluorescence every 2 min after the addition of AAPH with the excitation wavelength at 485 nm and the emission wavelength at 530 nm. The Trolox (TE) stock solution was used as standard with concentration varying between 0 and 417 μM. The ORAC values were calculated using a regression equation (y = mx + c) between Trolox concentration (y in μM) and the net area under the fluorescence decay curve (x). ORAC values were expressed as μM Trolox equivalents (TE) per gram of test samples (μM TE/g). The antioxidant epigallocatechin gallate (EGCG) was used as a positive control.

[2] = test system: Mtb H37Rv pMSp12::GFP bioreporter strain; test: microbe, parasite or virus in culture; format: cell-based, Mycobacterium tuberculosis; details: for MIC90: Mycobacterium tuberculosis, H37RV; for ADC MIC increase: may be due to serum binding
[3] = FRAP (Ferric Ion Reducing Antioxidant Power) assay; details: for FRAP: μM ascorbic acid equivalents per gram, mean ± SD
Method: The FRAP assay was conducted according to Benzie and Strain’s method, which consists of finding the compounds’ antioxidant potential in terms of μM ascorbic acid equivalents per gram dry weight (μM AAE/g). L-Ascorbic acid was used as a standard in the FRAP assay with concentrations varying between 0 and 1000 μM. The antioxidant potential of the tested samples was read at a wavelength of 593 nm in a Multiskan (Thermo Fisher Scientific, Waltham, MA, USA) spectrum plate reader.

[4] = In vitro cytotoxicity MTT assay; details: human
[5] = TEAC (Trolox Equivalent Absorbance Capacity) assay; details: for TEAC: μM Trolox equivalents per gram, mean ± SD
Method: The TEAC assay was done according to the method developed by Pellegrini et al., which consists of determining the activities of the isolated compounds in terms of μM Trolox equivalents per gram dry weight (μM TE/g) of the test samples. Trolox was used as the standard with concentrations ranging from 0–500 μM. The absorbance was recorded by a Multiskan spectrometer plate reader at wavelength 734 nm. The antioxidant epigallocatechin gallate (EGCG) was used as a positive control.

HaCaT cells = test: In vitro cytotoxicity MTT assay; details: HaCaT cells
in vitro = details: human
[6] = 168 h, […], 7 days, 90% inhibition, read-out: MIC90, 7H9/ADC/Glu/Tw, 7 Days
[7] = 168 h, […], 7 days, 90% inhibition, read-out: MIC90, 7H9/CAS/ Glu/Tx, 7 Days
[8] = 168 h, […], 7 days, value in brackets, read-out: MIC90, 7H9/CAS/ Glu/Tx, 7 Days
[9] = 168 h, supplement, […], day 7, read-out: GFP Assay - 10pt DR: MIC90 [Media: 7H9 ADC GLU Tw, Day:7]
[10] = 168 h, supplement, […], day 7, read-out: GFP Assay - 10pt DR: MIC90 [Media: 7H9 CAS GLU Tx, Day:7]
[11] = 336 h, […], 14 days, 90% inhibition, read-out: MIC90, 7H9/ADC/Glu/Tw, 14 Days
[12] = 336 h, […], 14 days, 90% inhibition, read-out: MIC90, 7H9/CAS/ Glu/Tx, 14 Days
[13] = 336 h, […], 14 days, value in brackets, read-out: MIC90, 7H9/CAS/ Glu/Tx, 14 Days
[14] = 336 h, supplement, […], day 14, read-out: GFP Assay - 10pt DR: MIC90 [Media: 7H9 ADC GLU Tw, Day:14]
[15] = 336 h, supplement, […], day 14, read-out: GFP Assay - 10pt DR: MIC90 [Media: 7H9 CAS GLU Tx, Day:14]
[16] = span over compounds, medium and day not stated (abstract), read-out: MIC90 against Mycobacterium tuberculosis H37Rv
[17] = 168 h, […], 7 days, value in brackets, read-out: MIC90, 7H9/ADC/Glu/Tw, 7 Days
[18] = 336 h, […], 14 days, value in brackets, read-out: MIC90, 7H9/ADC/Glu/Tw, 14 Days

Compound	antioxidant activity in ORAC assay (in words) [1]	ORAC [1]	MIC90 [2, 6]	MIC90 [2, 7]	MIC90 [2, 8]	MIC90 [2, 9]	MIC90 [2, 10]	MIC90 [2, 11]	MIC90 [2, 12]	MIC90 [2, 13]	MIC90 [2, 14]	MIC90 [2, 15]	MIC90 [2, 16]	antioxidant activity in FRAP assay (in words) [3]	FRAP [3]	IC50 at 24 h [4]	antioxidant activity in TEAC assay (in words) [5]	TEAC [5]	other results
CC(C)C1=C(O)C(=O)C2=C(C1=O)[C@H](O)[C@@H](O)C1C(C)(C)CCC[C@]21C (stereo partly drawn) [Compound 1, 6β,7α-dihydroxyroyleanone]	good antioxidant activities	23,625.0 ± 1.64 µM TE/g	> 125 µg/mL	62.5 µg/mL	180 µM	> 125 µg/mL	62.5 µg/mL	> 125 µg/mL	60.6 µg/mL	174 µM	> 125 µg/mL	60.6 µg/mL	5.61 to 180 µM	very little activity	541.5 ± 1.59 µM AAE/g	60.2 µg/mL and 173 µM	good antioxidant activities	5080.8 ± 0.04 µM TE/g	
CC(=O)OC1C2=C(C(=O)C(O)=C(C(C)C)C2=O)C2(C)CCCC(C)(C)C2C1O (stereo not drawn) [Compound 2, 7α-acetoxy-6β-hydroxyroyleanone]	good activity	21,404.1 ± 4.35 µM TE/g	14.4 µg/mL	15.2 µg/mL	39 µM	15 µg/mL	15.2 µg/mL	14.6 µg/mL	15.6 µg/mL	40.1 µM	33.6 µg/mL	15.6 µg/mL	5.61 to 180 µM	weak antioxidant activities	345.5 ± 0.77 µM AAE/g	42.7 µg/mL and 109 µM	weak antioxidant activities	3700.8 ± 1.50 µM TE/g	antimycobacterial activity (in words) [2]: moderate activities; MIC90 [2, 17]: 36.8 µM; MIC90 [2, 18]: 37.5 µM
CC(C)C1=C(O)C(=O)C2=C(C1=O)[C@H](O)C[C@H]1C(C)(C)CCC[C@]21C [Compound 3, horminone]		12,443.3 ± 3.61 µM TE/g	> 125 µg/mL	14.3 µg/mL	43.2 µM	> 125 µg/mL	14.3 µg/mL	> 125 µg/mL	3.96 µg/mL	11.9 µM	> 125 µg/mL	3.96 µg/mL	5.61 to 180 µM		296.5 ± 6.72 µM AAE/g	53.7 µg/mL and 162 µM		Inactive	ADC MIC increase ([2]; […]): ADC MIC is increased > 4 fold which may be due to serum binding
CC(C)C1=C(O)C(=O)C2=C(C(=O)C(O)=C3C(C)(C)CCC[C@]23C)C1=O [Compound 4, coleon U quinone]	good activity	21,857.8 ± 5.85 µM TE/g	> 125 µg/mL	15.6 µg/mL	45.4 µM	> 125 µg/mL	15.6 µg/mL	> 125 µg/mL	1.93 µg/mL	5.61 µM	> 125 µg/mL	1.94 µg/mL	5.61 to 180 µM	weak antioxidant activities	2109.6 ± 2.78 µM AAE/g	33.9 µg/mL and 98.5 µM	weak antioxidant activities	225.5 ± 1.47 µM TE/g	ADC MIC increase ([2]; […]): ADC MIC is increased > 4 fold which may be due to serum binding; cytotoxic activity against HaCaT cells (in words) (HaCaT cells): good cytotoxic activities
CC(C)c1cc2c(c(O)c1O)[C@@]13CCCC(C)(C)[C@@H]1[C@](O)(OC3)C2=O [Compound 5, carnosolon]		29,287.4 ± 4.75 µM TE/g	> 125 µg/mL	> 125 µg/mL		> 125 µg/mL	> 125 µg/mL	> 125 µg/mL	> 125 µg/mL		> 125 µg/mL	> 125 µg/mL			13,772.2 ± 2.76 µM AAE/g	27.5 µg/mL and 79.8 µM		4876.3 ± 0.49 µM TE/g	MIC90 ([2]; in both media, read-out: MIC90 against Mtb H37Rv): > 125 µg/mL; cytotoxic activity against HaCaT cells (in words) (HaCaT cells): good cytotoxic activities
O=C(O[C@@H]1Cc2c(O)cc(O)cc2O[C@@H]1c1cc(O)c(O)c(O)c1)c1cc(O)c(O)c(O)c1 [EGCG, epigallocatechin gallate, reference compound]		14,970.0 ± 5.53 µM TE/g													10,455.1 ± 0.81 µM AAE/g			4722.5 ± 2.22 µM TE/g	
CO[C@H]1/C=C/O[C@@]2(C)Oc3c(C)c(O)c4c(O)c(c(/C=N/N5CCN(C)CC5)c(O)c4c3C2=O)NC(=O)/C(C)=C\C=C\[C@H](C)[C@H](O)[C@@H](C)[C@@H](O)[C@@H](C)[C@H](OC(C)=O)[C@@H]1C [Rifampicin, reference compound]			0.001 µg/mL	0.015 µg/mL	0.02 µM	0.001 µg/mL	0.013 µg/mL	0.002 µg/mL	0.035 µg/mL	0.04 µM	0.0011 µg/mL	0.018 µg/mL							MIC90 [2, 17]: 0.001 µM; MIC90 [2, 18]: 0.002 µM; GFP Assay - 10pt DR: MIC90 [Media: 7H9 ADC GLU Tw, Day:7] ([2]; supplement, […], day 7): 0.002 µg/mL; GFP Assay - 10pt DR: MIC90 [Media: 7H9 CAS GLU Tx, Day:7] ([2]; supplement, […], day 7): 0.015 µg/mL; GFP Assay - 10pt DR: MIC90 [Media: 7H9 ADC GLU Tw, Day:14] ([2]; supplement, […], day 14): 0.001 µg/mL; GFP Assay - 10pt DR: MIC90 [Media: 7H9 CAS GLU Tx, Day:14] ([2]; supplement, […], day 14): 0.035 µg/mL
CC/C(=C(\c1ccccc1)c1ccc(OCCN(C)C)cc1)c1ccccc1 [tamoxifen]																			IC50 at 24 h (in vitro): 22 µg/mL and 59.3 µM
